From patent US9945862B2, “Biomarkers for predicting and assessing responsiveness of thyroid and kidney cancer subjects to lenvatinib compounds” (Eisai R&D Management Co., Ltd., priority 2011, dated 2018)

Assays:
[1] = test system: cytokine, chemokine and angiogenic factors (blood biomarkers); assay: Serum blood biomarkers (cytokine, chemokine and angiogenic factors) by ELISA and multiplex kits, pre- and post-treatment with E7080; format: in vivo, human
Procedure: Patients received E7080 at a dose of 24 mg oral once daily in 28 day cycles. […] 7.5 mL of blood was drawn into serum […] tube (SST) and let to clot at room temperature for at least 30 min. Within 60 minutes of sample collection, the tubes were centrifuged for 10 minutes at 20-25° C. at 1400×g. The supernatant was drawn without disturbing the pellet and the serum was mixed and divided into two sample tubes and stored frozen (−70° C.) at an upright position until further treatment for analysis. Serum samples from 58 patients were used for blood biomarker analysis. […] The association of progression free survival with or without a covariate was analyzed. The covariates used are the following PK parameters: cycle 1 day 1 Cmax (E7080 concentration 2 hr after dosing on cycle 1 day 1: MAX1); cycle 1 day 1 Ctrough (E7080 concentration before dosing on cycle1 day 8: MIN1); cycle 2 day 1 Cmax (E7080 concentration 2 hrs after dosing on cycle 2 day 1: MAX2); cycle 2 day 1 Ctrough (E7080 concentration before dosing on cycle 2 day 1: MIN2). Serum samples were tested in batch format where all timepoints from the same subject were assayed on the same day. On the day of assay, samples were removed from −80° C. and allowed to thaw and reach room temperature. The serum samples were tested using the following commercial assay kits as per the manufacturer's instructions: Human Soluble Tie-2 ELISA (R&D Systems Cat. No. DTE200), Human Angiopoietin-1 ELISA (R&D Systems Cat. No. DANG10), Human FGF23 ELISA, Human SDF-1a ELISA. Human Angiopoietin-2 ELISA (R&D Systems Cat. No. DANG20), Human Soluble Receptor Multiplex (Millipore Cat. No. HSCR-32K; sVEGF R1, sVEGF R2 and sVEGF R3 only), Human Cytokine/Chemokine Panel I Multiplex (Millipore Cat. No. MPXHCYTO-60K; IL-1α, IL-1β, IL-1ra, IL-2, IL-4, IL-5, IL-6, IL-7, IL-8, IL-10, IL-12p40, IL-12p70, IL-13, IL-15, IL-17, sCD40L, EGF, Eotaxin, FGF-2, G-CSF, GM-CSF, IFN-γ, IP-10, MCP-1, MIP-1α, MIP-1β, PDGF-AA, RANTES, TGF-α, TNF-α and VEGF only) and Human Growth Factor Multiplex (Origene TruPLEX Cat. No. AM100096; PDGF-AB, PDGF-BB, FGF4, VEGFD, FGF2, EGF, HGF, FLT3LG, ANGPT2, PGF and VEGFA).
The ELISA plates were measured using a Molecular Devices UVmax kinetic microplate reader with SoftMax Pro 5.2 software. The multiplex assays were performed using the Bio-Rad Bio-Plex system with Bio-Plex Manager 4.1 software. Final protein concentrations (pg/mL) were calculated from the standard curve for each assay. Depending on the assay, serum samples may have been diluted in assay buffer prior to testing. In these cases, protein concentrations were multiplied by the dilution factor.
From 58 patient samples, between 27 and 49 pre- and post-treatment blood samples were used for analyses.

[2] = test system: thyroglobulin; assay: Serum thyroglobulin, chemiluminescent immunometric assay (IMMULITE 2000), pre- and post-treatment with E7080; format: in vivo, human; settings: 48 days (within 2 cycles) after treatment; decrease continued to cycle 8

## COc1cc2nccc(Oc3ccc(NC(=O)NC4CC4)c(Cl)c3)c2cc1C(N)=O [E7080, 4-(3-chloro-4-(cyclopropylaminocarbonyl)aminophenoxy)-7-methoxy-6-quinolinecarboxamide]
[1]; CYCLE 1 DAY 1 (pre-treatment)
  ANG2 (90) concentration (Median), PR group: 829.5 pg/mL
  ANG2 (90) concentration (Median), others (SD or PD): 1032.9 pg/mL
  Ang-2 concentration (Median), PR group: 2530.5 pg/mL
  Ang-2 concentration (Median), others (SD or PD): 3399 pg/mL
  IFN-g concentration (Median), PR group: 7.9 pg/mL
  IFN-g concentration (Median), others (SD or PD): 21.2 pg/mL
[1]; CYCLE 1 DAY 8
  ANG2 (90) concentration (Median), PR group: 591.7 pg/mL
  ANG2 (90) concentration (Median), others (SD or PD): 799.3 pg/mL
  ANG2 (90) serum level post treatment (median): 688.6 pg/mL
  Ang-2 serum level post treatment (median): 1812 pg/mL
  Eotaxin serum level post treatment (median): 154.7 pg/mL
  FLT3 LG (89) serum level post treatment (median): 71.1 pg/mL
  G-CSF serum level post treatment (median): 67.1 pg/mL
  HGF (86) serum level post treatment (median): 1339.3 pg/mL
  IL-6 serum level post treatment (median): 17.3 pg/mL
  IL-7 serum level post treatment (median): 6.4 pg/mL
  IL-8 serum level post treatment (median): 31.7 pg/mL
  IL-17 serum level post treatment (median): 14.4 pg/mL
  IP-10 serum level post treatment (median): 474.3 pg/mL
  PGF (91) serum level post treatment (median): 35.9 pg/mL
  SDF-1a concentration (Median), PR group: 3294 pg/mL
  SDF-1a concentration (Median), others (SD or PD): 2915 pg/mL
  SDF-1a serum level post treatment (median): 3129.0 pg/mL
  TGFa serum level post treatment (median): 14.6 pg/mL
  Tie-2 serum level post treatment (median): 31685 pg/mL
  VEGF serum level post treatment (median): 741.4 pg/mL
  VEGFA (100) serum level post treatment (median): 202.1 pg/mL
  sVEGFR1 serum level post treatment (median): 300 pg/mL
  sVEGFR2 serum level post treatment (median): 18823.1 pg/mL
[1]; CYCLE 1 DAY 8/CYCLE 1 DAY 1
  FGF-2 ratio (Median), PR group: 1.189
  FGF-2 ratio (Median), others (SD or PD): 0.952
  GM-CSF ratio (Median), PR group: 1.037
  GM-CSF ratio (Median), others (SD or PD): 0.945
[1]; CYCLE 1 DAY 8 vs CYCLE 1 DAY 1
  ANG2 (90) fold change (median): 0.671
  Ang-2 fold change (median): 0.665
  Eotaxin fold change (median): 1.171
  FLT3 LG (89) fold change (median): 0.885
  G-CSF fold change (median): 1.25
  HGF (86) fold change (median): 1.096
  IL-6 fold change (median): 1.824
  IL-7 fold change (median): 1
  IL-8 fold change (median): 1.164
  IL-17 fold change (median): 1.025
  IP-10 fold change (median): 1.249
  PGF (91) fold change (median): 2.306
  SDF-1a fold change (median): 1.21
  TGFa fold change (median): 1.157
  Tie-2 fold change (median): 0.917
  VEGF fold change (median): 1.29
  VEGFA (100) fold change (median): 1.28
  sVEGFR1 fold change (median): 0.92
  sVEGFR2 fold change (median): 0.676
[1]; CYCLE 2 DAY 2/CYCLE 1 DAY 8
  FGF2 (79) ratio (Median), PR group: 1.132
  FGF2 (79) ratio (Median), others (SD or PD): 0.978
  GM-CSF ratio (Median), PR group: 1.051
  GM-CSF ratio (Median), others (SD or PD): 0.876
  HGF (86) ratio (Median), PR group: 0.789
  HGF (86) ratio (Median), others (SD or PD): 1.087
  Tie-2 ratio (Median), PR group: 0.791
  Tie-2 ratio (Median), others (SD or PD): 0.852
  VEGFA (100) ratio (Median), PR group: 0.899
  VEGFA (100) ratio (Median), others (SD or PD): 1.172
[1]; CYCLE 2 DAY 8
  ANG2 (90) serum level post treatment (median): 600.6 pg/mL
  Ang-2 serum level post treatment (median): 1533 pg/mL
  EGF (80) serum level post treatment (median): 875.8 pg/mL
  EGF serum level post treatment (median): 75.9 pg/mL
  Eotaxin serum level post treatment (median): 177 pg/mL
  G-CSF serum level post treatment (median): 61.3 pg/mL
  IL-6 concentration (Median), PR group: 8.2 pg/mL
  IL-6 concentration (Median), others (SD or PD): 33.9 pg/mL
  IL-6 serum level post treatment (median): 15 pg/mL
  IL-8 serum level post treatment (median): 31.4 pg/mL
  IP-10 serum level post treatment (median): 602.8 pg/mL
  MCP-1 serum level post treatment (median): 618.0 pg/mL
  PGF (91) serum level post treatment (median): 46.0 pg/mL
  SDF-1a serum level post treatment (median): 3529.5 pg/mL
  Tie-2 serum level post treatment (median): 26220 pg/mL
  VEGFA (100) serum level post treatment (median): 212.5 pg/mL
  sVEGFR1 serum level post treatment (median): 341.5 pg/mL
  sVEGFR2 serum level post treatment (median): 13352.1 pg/mL
  sVEGFR3 serum level post treatment (median): 4030.9 pg/mL
[1]; CYCLE 2 DAY 8/CYCLE 1 DAY 1
  Eotaxin ratio (Median), PR group: 1.541
  Eotaxin ratio (Median), others (SD or PD): 1.242
  IP-10 ratio (Median), PR group: 1.547
  IP-10 ratio (Median), others (SD or PD): 1.151
[1]; CYCLE 2 DAY 8 vs CYCLE 1 DAY 1
  ANG2 (90) fold change (median): 0.586
  Ang-2 fold change (median): 0.618
  EGF (80) fold change (median): 1.17
  EGF fold change (median): 0.808
  Eotaxin fold change (median): 1.363
  G-CSF fold change (median): 1.215
  IL-6 fold change (median): 1.299
  IL-8 fold change (median): 1.205
  IP-10 fold change (median): 1.382
  MCP-1 fold change (median): 1.086
  PGF (91) fold change (median): 3.05
  SDF-1a fold change (median): 1.345
  Tie-2 fold change (median): 0.766
  VEGFA (100) fold change (median): 1.426
  sVEGFR1 fold change (median): 0.805
  sVEGFR2 fold change (median): 0.499
  sVEGFR3 fold change (median): 0.843
[2]
  Change in serum thyroglobulin levels after treatment: significantly decreased
